# From patent US20100080786A1, “Phenyl or Pyridinyl Substituted Indazoles Derivatives” (priority 2008, published 2010)
# Target: T1, Human Glucocorticoid Receptor (GR) (Homo sapiens, UniProt P04150)
# T1 construct: The full length GR was diluted to a final concentration of 3.3% (0.495 mg/ml) in assay buffer
# T1 sequence (P04150 1-777): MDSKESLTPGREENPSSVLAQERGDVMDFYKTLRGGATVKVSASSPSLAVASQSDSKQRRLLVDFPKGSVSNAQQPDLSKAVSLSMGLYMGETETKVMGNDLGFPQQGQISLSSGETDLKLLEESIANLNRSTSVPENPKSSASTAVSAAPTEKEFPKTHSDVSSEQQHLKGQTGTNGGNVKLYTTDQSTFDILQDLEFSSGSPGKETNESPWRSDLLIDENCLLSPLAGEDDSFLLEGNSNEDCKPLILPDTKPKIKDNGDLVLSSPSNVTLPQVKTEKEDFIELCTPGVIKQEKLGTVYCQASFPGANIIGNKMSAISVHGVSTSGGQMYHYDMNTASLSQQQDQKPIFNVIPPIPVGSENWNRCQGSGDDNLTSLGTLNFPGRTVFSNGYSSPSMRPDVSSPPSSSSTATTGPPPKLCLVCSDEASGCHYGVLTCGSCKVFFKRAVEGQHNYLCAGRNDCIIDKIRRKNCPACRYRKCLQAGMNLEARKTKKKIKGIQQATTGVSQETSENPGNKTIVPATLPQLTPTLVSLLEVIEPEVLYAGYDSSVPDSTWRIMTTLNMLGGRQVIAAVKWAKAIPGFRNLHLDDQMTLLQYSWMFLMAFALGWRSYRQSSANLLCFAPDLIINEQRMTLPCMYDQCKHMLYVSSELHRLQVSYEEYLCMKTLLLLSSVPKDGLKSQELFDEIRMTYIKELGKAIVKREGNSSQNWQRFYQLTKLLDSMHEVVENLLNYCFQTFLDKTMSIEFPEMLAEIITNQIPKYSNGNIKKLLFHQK
# Experiment: Human Glucocorticoid Receptor (GR) radioligand binding assay (3H-dexamethasone competition)
# Details: full length GR; 7 nM 3H-dexamethasone; 2 h at room temperature
# Procedure: Human Glucocorticoid Receptor (GR) Assay
# The radioligand GR binding assay is based on a competition assay using ^3H-labeled Dexamethasone. Dexamethasone is known to bind in the ligand binding domain of GR and compete for binding with endogenous ligands like e.g. cortisol (Necela, 2003). In the GR radioligand binding assay, test compounds were serially diluted in semi-log steps (10 concentrations) with a final concentration of 10 μM. Test compounds (1 μL) and controls (1 μL) in 100% DMSO were added to 96 Greiner V-bottom polypropylene plates. 0% control was 6.7% DMSO (final concentration in assay) and 100% control was 6.7 μM Dexamethasone.
# The full length GR was diluted to a final concentration of 3.3% (0.495 mg/ml) in assay buffer (20 mM Tris-HCl, 1 mM EDTA, 10% (w/v) Glycerol, 20 mM Sodium molybdate, pH 7.4). 45 μL of GR was added to each well and the plates were incubated for 15 min at room temperature.
# ^3H-dexamethasone solution was diluted to a concentration of 70 nM in assay buffer (7 nM final assay concentration) and 5 μL was added to each well. The samples were mixed for 5 min using a plate shaker at 700 rpm, before incubation for 2 h at room temperature.
# 50 μL ice-cold charcoal solution (pH 7.4:2% Charcoal, 0.2% Dextran T70 in 20 mM Tris-HCl, 1 mM EDTA and 20 mM Sodium molybdate) was added to each well and the samples were mixed on plate shaker for 5 minutes.
# The plate was then centrifuged for 1.5 min at 1500 rpm, the samples (80 μL) were is transferred from each well to a filter plate (Millipore, 0.45 μm, MHVBN45) on a vacuum manifold and then collected into new plates (Greiner, 96 well white/transparent, 655095). The filter plate was washed once with 20 μl of water and then 100 μL of scintillation liquid was added to each well and mixed by incubation on plate shaker for 5 min. Radioactivity was measured in a 1450 Microbeta Trilux Reader (Wallac) counting cpm for 2 minutes per well. The data obtained from each replicate experiment were analysed using the software ActivityBase, version 5.4.3 (ID Business Solutions Ltd) and IC50 values were calculated. Ref: Necela, B M, Cidlowski, J A, Trends Pharmacol Sci, 24: 58, 2003
row,IC50 [nM],Compound
1,4.13,"CCC(O)CNC(=O)c1cccc(-n2ncc3cc(O[C@H](c4ccc(OC)nc4)[C@H](C)NC(=O)C(C)(F)F)ccc32)c1 (stereo partly drawn) [Example 26, 3-(5-{[(1R,2S)-2-[(2,2-difluoropropanoyl)amino]-1-(6-methoxypyridin-3-yl)propyl]oxy}-1H-indazol-1-yl)-N-(2-hydroxybutyl)benzamide]"
2,13.6,COc1ccc([C@@H](Oc2ccc3c(cnn3-c3cccc(C(=O)NC4CCCC4)c3)c2)[C@H](CO)NC(=O)C(C)(F)F)cn1 [Example 27]
3,1.39,"COc1ccc([C@@H](Oc2ccc3c(cnn3-c3cccc(C(=O)NCc4cccnc4)c3)c2)[C@H](C)NC(=O)C(C)(F)F)cn1 [Example 28, 3-(5-{[(1R,2S)-2-[(2,2-difluoropropanoyl)amino]-1-(6-methoxypyridin-3-yl)propyl]oxy}-1H-indazol-1-yl)-N-(pyridin-3-ylmethyl)benzamide]"
